Data reported in US6420558B1, “Aminopiperidine derivates as integrin αvβ3 antagonists” (Meiji Seika Kaisha, Ltd., priority 1998, dated 2002).

Legend:
[1] = target: T1, integrin αvβ3 (vitronectin receptor purified from the human placenta) (Homo sapiens, UniProt P05106+P06756); assay: αvβ3 binding assay (vitronectin-vitronectin receptor binding assay); details: vitronectin binding to human placenta vitronectin receptor; read-out: integrin αvβ3 antagonistic activity, IC50 value
T1 construct: a vitronectin receptor (protein content: 118 μg/ml) purified from the human placenta; from tissue; host or cells: human placenta
T1 sequence (P06756 31-889 limits assumed): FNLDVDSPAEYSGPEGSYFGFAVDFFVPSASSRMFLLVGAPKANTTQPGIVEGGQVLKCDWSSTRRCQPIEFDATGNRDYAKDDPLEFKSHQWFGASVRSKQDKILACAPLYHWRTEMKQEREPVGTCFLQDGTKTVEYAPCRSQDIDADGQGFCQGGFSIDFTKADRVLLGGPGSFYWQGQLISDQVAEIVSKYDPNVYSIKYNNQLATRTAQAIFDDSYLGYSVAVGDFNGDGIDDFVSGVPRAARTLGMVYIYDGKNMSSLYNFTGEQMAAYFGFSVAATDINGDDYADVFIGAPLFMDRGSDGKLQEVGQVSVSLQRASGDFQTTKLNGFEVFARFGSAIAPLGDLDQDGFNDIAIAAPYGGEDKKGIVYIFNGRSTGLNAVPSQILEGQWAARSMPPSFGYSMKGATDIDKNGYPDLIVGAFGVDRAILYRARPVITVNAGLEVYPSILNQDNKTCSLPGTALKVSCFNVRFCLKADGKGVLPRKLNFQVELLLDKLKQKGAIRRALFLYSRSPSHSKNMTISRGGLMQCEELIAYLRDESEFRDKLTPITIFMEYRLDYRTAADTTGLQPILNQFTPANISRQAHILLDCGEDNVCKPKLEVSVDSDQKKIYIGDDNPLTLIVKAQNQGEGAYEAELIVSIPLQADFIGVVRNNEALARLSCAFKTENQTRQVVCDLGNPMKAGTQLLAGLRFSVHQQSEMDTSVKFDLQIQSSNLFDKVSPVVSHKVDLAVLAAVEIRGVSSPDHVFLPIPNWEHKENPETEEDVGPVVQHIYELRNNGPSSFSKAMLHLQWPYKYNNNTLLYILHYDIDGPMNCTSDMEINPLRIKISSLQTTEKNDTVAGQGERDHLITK
T1 sequence (P06756 891-1048 limits assumed): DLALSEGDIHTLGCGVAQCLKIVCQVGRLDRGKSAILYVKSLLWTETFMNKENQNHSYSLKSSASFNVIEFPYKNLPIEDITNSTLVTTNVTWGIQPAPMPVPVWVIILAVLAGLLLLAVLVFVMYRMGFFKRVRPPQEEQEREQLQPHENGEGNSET
T1 sequence (P05106 27-788): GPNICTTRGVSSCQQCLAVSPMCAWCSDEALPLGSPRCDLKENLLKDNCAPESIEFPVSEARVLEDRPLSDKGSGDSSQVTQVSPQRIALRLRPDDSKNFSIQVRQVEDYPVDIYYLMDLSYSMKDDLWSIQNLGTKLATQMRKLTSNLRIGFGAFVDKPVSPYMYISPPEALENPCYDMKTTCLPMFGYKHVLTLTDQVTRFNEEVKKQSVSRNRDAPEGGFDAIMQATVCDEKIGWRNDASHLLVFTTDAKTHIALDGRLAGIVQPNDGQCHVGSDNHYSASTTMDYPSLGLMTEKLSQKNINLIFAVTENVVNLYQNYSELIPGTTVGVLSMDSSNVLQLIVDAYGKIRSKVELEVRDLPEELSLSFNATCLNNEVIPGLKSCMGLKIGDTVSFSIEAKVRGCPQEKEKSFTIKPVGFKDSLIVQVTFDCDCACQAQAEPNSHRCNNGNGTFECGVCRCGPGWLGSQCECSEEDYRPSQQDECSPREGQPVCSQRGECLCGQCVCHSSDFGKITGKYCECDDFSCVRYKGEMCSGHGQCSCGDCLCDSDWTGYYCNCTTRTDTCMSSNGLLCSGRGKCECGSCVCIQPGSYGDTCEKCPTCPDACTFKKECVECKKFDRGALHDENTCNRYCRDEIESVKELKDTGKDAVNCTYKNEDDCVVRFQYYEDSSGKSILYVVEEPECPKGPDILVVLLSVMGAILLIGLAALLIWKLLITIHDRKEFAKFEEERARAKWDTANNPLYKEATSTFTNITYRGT
Procedure: Integrin αvβ3 antagonistic activity was measured for the compounds according to the present invention in a vitronectin-vitronectin receptor binding assay system in accordance with the method of Kouns et al. (W. C. Kouns, D. Kirchhofer, P. Hadvary, A. Edenhofer, T. Weller, G. Pfenninger, H. R. Baumgartner, L. K. Jennings and B. Steiner, Blood, 80, 2539-2547 (1992)).
Specifically, a vitronectin receptor (protein content: 118 μg/ml) purified from the human placenta in accordance with the method of Pytela et al. (R. Pytela, M. D. Pierschbacher, S. Argraves, S. Suzuki, and E. Ruoslahti, Method in Enzymology, 144, 475-489 (1987)) was diluted 50 times with TBS (20 mM Tris-HCl, 150 mM NaCl, 1 mM CaCl2, 1 mM MgCl2, pH 7.4), and distributed and coated on wells (50 μl/well) of a plate (Maxisorp, Nunc, 96 well Immuno Plate). The plate was then allowed to stand at 4° C. for 1 day, washed twice with TBS (200 μl/well), and then subjected to blocking with TBS (150 μl/well) containing 1% bovine serum albumin (SIGMA) at 4° C. overnight. After washing twice with TBS (200 μl/well), 50 μl of vitronectin (CALBIOCHEM) adjusted to 0.2 μg/ml by the addition of TBS (TBS-Tween) containing 0.01% Tween-20 was mixed with 50 μl of each test compound adjusted to each concentration in wells, and a reaction was allowed to proceed at room temperature for 4 hr. After the completion of the reaction, the wells were washed five times with TBS-Tween. A solution prepared by diluting anti-vitronectin rabbit antiserum (CHEMICON) 500 times with TBS-Tween was added as a primary antibody in an amount of 50 μl/well, and a reaction was allowed to proceed at room temperature for 1.5 hr. After washing five times with 200 μl/well of TBS-Tween, a peroxidase (POD)-labeled anti-rabbit IgG antibody solution (CAPPEL) diluted 500 times with TBS-Tween was added as a secondary antibody in an amount of 50 μl/well, and a reaction was allowed to proceed at room temperature for 1.5 hr. After washing five times with TBS-Tween (200 μl/well), ABTS (2,2′-azino-bis(3-ethylbenzthiazoline-6-sulfonic acid), SIGMA) was adjusted to 1 mg/ml by the addition of a ten-fold diluted POD-buffer (ZYMED), and added in an amount of 50 μl/well, and a reaction was allowed to proceed for 5 to 10 min. A 0.1 M citric acid buffer (pH 4.3) containing 0.05% NaN3 was added in an amount of 50 μl/well to stop the reaction, followed by the measurement of the absorbance at 415 nm with a microplate reader (MTP 32, Corona Electric) (reference: 675 nm). The total binding was defined as the absorbance after a reaction using 50 μl of TBS-Tween instead of the test compound, and the non-specific binding (100% inhibition) was defined as the absorbance after a reaction using 50 μl of TBS-Tween containing 2×10^−3 M RGDS. The inhibition was calculated by the following equation: [formula]
IC50 was determined from a primary regression line of the logarithm of each concentration of the test compound and the logarithm of (100−inhibition)/inhibition.

[2] = target: GP IIb/IIIa (Homo sapiens, UniProt P05106+P08514); assay: GP IIb/IIIa antagonistic activity (method of Pharmacological Test 2 in WO 94/21599); assay type: binding
GP IIb/IIIa, sequence (P08514 32-887 limits assumed): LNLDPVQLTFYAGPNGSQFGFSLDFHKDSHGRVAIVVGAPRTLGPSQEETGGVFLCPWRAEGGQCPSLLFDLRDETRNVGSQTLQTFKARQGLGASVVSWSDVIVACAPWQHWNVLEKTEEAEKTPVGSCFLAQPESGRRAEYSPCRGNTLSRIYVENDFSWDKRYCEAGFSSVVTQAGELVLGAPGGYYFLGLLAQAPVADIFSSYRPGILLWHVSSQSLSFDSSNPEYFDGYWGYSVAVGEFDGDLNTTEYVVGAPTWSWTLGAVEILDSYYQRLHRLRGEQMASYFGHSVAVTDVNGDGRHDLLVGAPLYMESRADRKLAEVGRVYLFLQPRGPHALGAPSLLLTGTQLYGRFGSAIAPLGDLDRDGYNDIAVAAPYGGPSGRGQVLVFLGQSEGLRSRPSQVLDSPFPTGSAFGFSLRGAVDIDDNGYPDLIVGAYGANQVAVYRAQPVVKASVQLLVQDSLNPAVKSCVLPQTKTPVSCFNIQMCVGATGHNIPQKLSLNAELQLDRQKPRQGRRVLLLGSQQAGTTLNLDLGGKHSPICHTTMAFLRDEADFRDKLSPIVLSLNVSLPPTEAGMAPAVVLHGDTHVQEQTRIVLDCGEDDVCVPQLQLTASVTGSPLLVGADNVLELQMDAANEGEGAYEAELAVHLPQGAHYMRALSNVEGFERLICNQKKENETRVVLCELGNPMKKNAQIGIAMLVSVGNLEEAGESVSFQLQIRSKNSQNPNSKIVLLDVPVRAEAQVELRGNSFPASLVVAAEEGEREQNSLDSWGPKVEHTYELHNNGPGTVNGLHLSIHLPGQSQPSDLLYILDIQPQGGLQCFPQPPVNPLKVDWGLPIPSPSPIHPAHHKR
GP IIb/IIIa, sequence (P08514 891-1039 limits assumed): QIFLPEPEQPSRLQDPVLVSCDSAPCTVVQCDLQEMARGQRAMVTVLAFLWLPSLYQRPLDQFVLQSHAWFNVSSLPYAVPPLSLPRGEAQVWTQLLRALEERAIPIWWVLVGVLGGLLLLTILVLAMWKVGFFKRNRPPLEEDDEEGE
GP IIb/IIIa, sequence (P05106 27-788): as the sequence (P05106 27-788) above
Procedure: GP IIb/IIIa Antagonistic Activity and Human Platelet Aggregation Inhibitory Activity
GP IIb/IIIa antagonistic activity was measured for the compounds according to the present invention. The measurement of the GP IIb/IIIa antagonistic activity was carried out according to the method described in Pharmacological Test 2 in WO 94/21599.

IC50 [1] | IC50 [2] | Compound
≤ 1 nM | ≤ 1 nM | O=C(O)c1ccc(S(=O)(=O)N[C@@H](CNC(=O)c2ccc(N3CCC(N=C4NCCCN4)CC3)c(F)c2)C(=O)O)cc1 [Example 78, (2S)-(4-Carboxybenzenesulfonyl)amino-3-[3-fluoro-4-{4-(1.4.5.6-tetrahydropyrimidin-2-ylamino)-piperidin-1-yl}benzoylamino]propionic acid]
≤ 1 nM | ≤ 1 nM | O=C(NC[C@H](NS(=O)(=O)c1ccccc1)C(=O)O)c1ccc(N2CCC(Nc3nc4ncccc4[nH]3)CC2)cc1 [Example 38, (2S)-Benzenesulfonylamino-3-[4-[4-{(1H-imidazo[4,5-b]pyridin-2-yl)amino}piperidin-1-yl]benzoyl-amino]propionic acid]
≤ 1 nM | ≤ 1 nM | COc1ccc(S(=O)(=O)N[C@@H](CNC(=O)c2ccc(N3CCC(NC4=NCCCN4)CC3)c(F)c2)C(=O)O)cc1 [Example 73, 3-[3-Fluoro-4-{4-(1,4,5,6-tetrahydropyrimidin-2-ylamino)piperidin-1-yl}benzoyl-amino]-(2S)-{(4-methoxybenzenesulfonyl)amino}propionic acid]
≤ 1 nM | ≤ 1 nM | Cc1cc(C)c(S(=O)(=O)N[C@@H](CNC(=O)c2ccc(N3CCC(Nc4nc5ccccc5[nH]4)CC3)cc2)C(=O)O)c(C)c1 [Example 31, 3-[4-{4-(1H-Benzimidazol-2-ylamino)piperidin-1-yl}benzoylamino]-(2S)-{(2,4,6-trimethylbenzenesulfonyl)amino}propionic acid]
≤ 1 nM | ≤ 1 nM | Nc1ccc(S(=O)(=O)N[C@@H](CNC(=O)c2ccc(N3CCC(Nc4nc5ccccc5[nH]4)CC3)cc2)C(=O)O)cc1 [Example 36, (2S)-(4-Aminobenzenesulfonyl)amino-3-[4-{4-(1H-benzimidazol-2-ylamino)piperidin-1-yl}benzoylamino]-propionic acid]
≤ 1 nM | ≤ 1 nM | O=C(NC[C@H](NS(=O)(=O)c1ccc(F)cc1)C(=O)O)c1ccc(N2CCC(Nc3nc4ccccc4[nH]3)CC2)cc1 [Example 33, 3-[4-{4-(1H-Benzimidazol-2-ylamino)piperidin-1-yl}benzoylamino]-(2S)-{(4-fluoro-benzenesulfonyl)amino}propionic acid]
≤ 1 nM | ≤ 1 nM | O=C(NC[C@H](NS(=O)(=O)c1ccccc1)C(=O)O)c1ccc(N2CCC(N=C3NCCCN3)CC2)c(O)c1 [Example 95, (2S)-Benzenesulfonylamino-3-[3-hydroxy-4-{4-(1,4,5,6tetrahydropyrimidin-2-ylamino)piperidin-1-yl}-benzoylamino]propionic acid]
